{
  "source": "patent US6465482B2",
  "about": "“Arylpiperazinyl-cyclohexyl indole derivatives for the treatment of depression” (Wyeth, priority 1999, dated 2002)",
  "note": "Counter-ions that a name gives are not always drawn.",
  "data": [
    {"values": [
      {"molecule": "Fc1ccc2c(c1)[nH]cc2[C@H]1CC[C@@H](N2CCN(c3cccc4[nH]ccc34)CC2)CC1", "note": "(as salt: HCl) [Example 4a, 6-Fluoro-3-[cis-4-[4-(1H-indol-4-yl)-1-piperazinyl]cyclohexyl]-1H-indole]", "melting point": "250 to 252 °C (dec.)"},
      {"molecule": "N#Cc1ccc2[nH]cc([C@H]3CC[C@@H](N4CCN(c5cccc6c5OCCO6)CC4)CC3)c2c1", "note": "(as salt: HCl) [Example 26a, 3-{(1,4-cis)-4-[4-(2,3-Dihydro-benzo[1,4]dioxin-5-yl)-piperazin-1-yl]-cyclohexyl}-1H-indole-5-carbonitrile]", "melting point": "300 °C"},
      {"molecule": "CCCn1cc([C@H]2CC[C@@H](N3CCN(c4cccc5[nH]ccc45)CC3)CC2)c2cc(C#N)ccc21", "note": "(as salt: HCl) (hydrate or solvate) [Example 14a, 3-{(1,4-cis)-4-[4-(1H-Indol-4-yl)-piperazin-1-yl]-cyclohexyl}-1-propyl-1H-indole-5-carbonitrile]", "melting point": "200 to 206 °C"},
      {"molecule": "COc1cc(N2CCN([C@H]3CC[C@H](c4cn(C)c5ccc(C#N)cc54)CC3)CC2)c2nccnc2c1", "note": "[Example 65b, (trans)-3-{4-[4-(7-Methoxyquinoxalin-5-yl)piperazin-1-yl]cyclohexyl}-1-methyl-1H-indole-5-carbonitrile]", "melting point": "230 to 233 °C"},
      {"molecule": "Brc1ccc2[nH]cc([C@H]3CC[C@@H](N4CCN(c5cccc6[nH]ccc56)CC4)CC3)c2c1", "note": "(as salt: HCl) [Example 5a, 5-Bromo-3-[cis-4-[4-(1H-indol-4-yl)-1-piperazinyl]cyclohexyl]-1H-indole]", "melting point": "276 °C"},
      {"molecule": "Cn1cc([C@H]2CC[C@@H](N3CCN(c4cc(C=O)cc5cccnc45)CC3)CC2)c2cc(C#N)ccc21", "note": "(as salt: oxalate) [Example 71, 8-[4-[(cis)-4-(5-Cyano-1-methyl-1H-indole-3-yl)-cyclohexyl]-piperazin-1-yl]-6-quinolinecarbaldehyde]", "melting point": "172 to 174 °C"},
      {"molecule": "N#Cc1ccc2[nH]cc([C@H]3CC[C@H](N4CCN(c5cc(F)cc6c5OCC6)CC4)CC3)c2c1", "note": "(as salt: HCl) (hydrate or solvate) [Example 33b, 3-{(1,4-trans)-4-[4-(5-Fluoro-2,3-dihydro-benzofuran-7-yl)-piperazin-1-yl]-cyclohexyl}-1H-indole-5-carbonitrile]", "melting point": "330 to 331 °C"},
      {"molecule": "Cn1cc([C@H]2CC[C@@H](N3CCN(c4cccc5cccnc45)CC3)CC2)c2cc(C#N)ccc21", "note": "(as salt: HCl) [Example 30, 1-Methyl-3-[(1,4-cis)-4-(4-quinolin-8-yl-piperazin-1-yl)-cyclohexyl]-1H-indole-5-carbonitrile]", "melting point": "288 to 289 °C"},
      {"molecule": "COc1ccc2cc(N3CCN(C4CCC(c5c[nH]c6ccc(F)cc56)CC4)CC3)ccc2c1", "note": "(centres unmarked) (as salt: oxalate) [Example 69, 5-Fluoro-3-{4-[4-(6-Methoxy-naphthalen-2-yl)-piperazin-1-yl]-cyclohexyl}-1H-indole]", "melting point": "200 to 203 °C"},
      {"molecule": "N#Cc1ccc2[nH]cc([C@H]3CC[C@@H](N4CCN(c5cccc6ccoc56)CC4)CC3)c2c1", "note": "(as salt: HCl) (hydrate or solvate) [Example 34a]", "melting point": "295 to 296 °C"},
      {"molecule": "CCn1cc([C@H]2CC[C@H](N3CCN(c4cccc5[nH]ccc45)CC3)CC2)c2cc(C#N)ccc21", "note": "(as salt: HCl) [Example 13b, 1-Ethyl-3-{(1,4-trans)-4-[4-(1H-indol-4-yl)-piperazin-1-yl]-cyclohexyl}-1H-indole-5-carbonitrile]", "melting point": "250 °C (dec.)"},
      {"molecule": "N#Cc1ccc2[nH]cc([C@H]3CC[C@@H](N4CCN(c5cc(F)cc6c5OCC6)CC4)CC3)c2c1", "note": "(as salt: HCl) (hydrate or solvate) [Example 33a, 3-{(1,4-cis)-4-[4-(5-Fluoro-2,3-dihydro-benzofuran-7-yl)-piperazin-1-yl]-cyclohexyl}-1H-indole-5-carbonitrile]", "melting point": "298 to 301 °C"},
      {"molecule": "Fc1cccc2[nH]cc([C@H]3CC[C@@H](N4CCN(c5cccc6c5OCCO6)CC4)CC3)c12", "note": "(as salt: HCl) [Example 23a, 3-{(1,4-cis)-4-[4-(2,3-Dihydro-benzo[1,4]dioxin-5-yl)-piperazin-1-yl]-cyclohexyl}-4-fluoro-1H-indole]", "melting point": "215 to 220 °C"},
      {"molecule": "c1cc(N2CCN([C@H]3CC[C@@H](c4c[nH]c5ncccc54)CC3)CC2)c2cc[nH]c2c1", "note": "(as salt: HCl) [Example 10a, 3-{(1,4-cis)-4-[4-(1H-Indole-4-yl)-piperazin-1-yl]-cyclohexyl}-1H-pyrrolo[2,3-b]pyridine]", "melting point": "> 250 °C (dec.)"},
      {"molecule": "N#Cc1ccc2[nH]cc([C@H]3CC[C@H](N4CCN(c5cccc6ccoc56)CC4)CC3)c2c1", "note": "(as salt: HCl) (hydrate or solvate) [Example 34b]", "melting point": "330 to 331 °C"},
      {"molecule": "COc1cc(N2CCN([C@H]3CC[C@@H](c4cn(C)c5cc(F)ccc54)CC3)CC2)c2ncccc2c1", "note": "[Example 81, 8-{cis-4-[4-(6-Fluoro-1-methyl-1H-indol-3-yl)cyclohexyl]-1-piperazinyl}-6-methoxyquinoline]", "melting point": "219 to 223 °C"},
      {"molecule": "COc1cc(N2CCN([C@H]3CC[C@@H](c4c[nH]c5cc(F)ccc54)CC3)CC2)c2ncccc2c1", "note": "[Example 80, 8-{cis-4-[4-(6-Fluoro-1H-indol-3-yl)cyclohexyl]-1-piperazinyl}-6-methoxyquinoline]", "melting point": "239 to 243 °C"},
      {"molecule": "COC(=O)c1cc(N2CCN([C@H]3CC[C@@H](c4cn(C)c5ccc(C#N)cc54)CC3)CC2)c2ncccc2c1", "note": "(as salt: oxalate) [Example 75, Methyl 8-[4-[(cis)-4-(5-cyano-1-methyl-1H-indol-3-yl)cyclohexyl]-1-piperazinyl]-6-quinolinecarboxylate]", "melting point": "153 to 155 °C"},
      {"molecule": "Fc1cc2c(c(N3CCN([C@H]4CC[C@@H](c5c[nH]c6ccc(F)cc65)CC4)CC3)c1)OCC2", "note": "(as salt: HCl) (hydrate or solvate) [Example 32a, 5-Fluoro-3-{(1,4-cis)-4-[4-(5-fluoro-2,3-dihydro-benzofuran-7-yl)-piperazin-1-yl]-cyclohexyl}-1H-indole]", "melting point": "196 to 198 °C"},
      {"molecule": "c1cc(N2CCN([C@H]3CC[C@H](c4c[nH]c5ncccc54)CC3)CC2)c2cc[nH]c2c1", "note": "(as salt: HCl) [Example 10b, 3-{(1,4-trans)-4-[4-(1H-Indole-4-yl)-piperazin-1-yl]-cyclohexyl}-1H-pyrrolo[2,3-b]pyridine]", "melting point": "> 250 °C (dec.)"},
      {"molecule": "Cn1cc([C@H]2CC[C@H](N3CCN(c4cc(C=O)cc5cccnc45)CC3)CC2)c2cc(C#N)ccc21", "note": "[Example 72, 8-[4-[(trans)-4-(5-Cyano-1-methyl-1H-indole-3-yl)-cyclohexyl]-piperazin-1-yl]-6-quinolinecarbaldehyde]", "melting point": "201 to 203 °C"},
      {"molecule": "COc1ccc2[nH]cc([C@H]3CC[C@@H](N4CCN(c5ccccc5OC)CC4)CC3)c2c1", "note": "(as salt: HCl) [Example 20a, 5-Methoxy-3-{(1,4-cis)-4-[4-(2-methoxy-phenyl)-piperazin-1-yl]-cyclohexyl}-1H-indole]", "melting point": "198 to 199 °C"},
      {"molecule": "CC(C)n1cc([C@H]2CC[C@@H](N3CCN(c4cccc5[nH]ccc45)CC3)CC2)c2cc(C#N)ccc21", "note": "(as salt: HCl) (hydrate or solvate) [Example 15a, 3-{(1,4-cis)-4-[4-(1H-indol-4-yl)-piperazin-1-yl]-cyclohexyl}-1-isopropyl-1H-indole-5-carbonitrile]", "melting point": "285 to 286 °C"},
      {"molecule": "Cn1cc([C@H]2CC[C@@H](N3CCN(c4cc(F)cc5c4OCC5)CC3)CC2)c2cc(C#N)ccc21", "note": "(as salt: HCl) [Example 33c, 3-{(1,4-cis)-4-[4-(5-Fluoro-2,3-dihydro-benzofuran-7-yl)-piperazin-1-yl]-cyclohexyl}-1-methyl-1H-indole-5-carbonitrile]", "melting point": "282 to 284 °C"},
      {"molecule": "Cn1cc([C@H]2CC[C@H](N3CCN(c4cc(C(=O)O)cc5cccnc45)CC3)CC2)c2cc(C#N)ccc21", "note": "[Example 74, 8-[4-[(trans)-4-(5-Cyano-1-methyl-1H-indole-3-yl)cyclohexyl]-1-piperazinyl]-6-quinolinecarboxylic Acid]", "melting point": "275 °C"},
      {"molecule": "Fc1ccc2c(c1)[nH]cc2[C@H]1CC[C@@H](N2CCN(c3cccc4c3OCCO4)CC2)CC1", "note": "(as salt: HCl) [Example 25a, 3-{(1,4-cis)-4-[4-(2,3-Dihydro-benzo[1,4]dioxin-5-yl)-piperazin-1-yl]-cyclohexyl}-6-fluoro-1H-indole]", "melting point": "228 to 230 °C"},
      {"molecule": "N#Cc1ccc2[nH]cc([C@H]3CC[C@@H](N4CCN(c5cccc6[nH]ccc56)CC4)CC3)c2c1", "note": "(as salt: HCl) [Example 7a, 3-{4-[(1,4-cis)-4-(1H-Indol-4-yl)-piperazinyl-1-yl]cyclohexyl}-1H-indole-5-carbonitrile]", "melting point": "216 to 218 °C"},
      {"molecule": "COc1ccc(F)cc1N1CCN([C@H]2CC[C@H](c3c[nH]c4ccc(F)cc43)CC2)CC1", "note": "(as salt: HCl) [Example 22b, 5-Fluoro-3-{(trans)-4-[4-(5-fluoro-2-methoxy-phenyl)-piperazin-1-yl]-cyclohexyl}-1H-indole]", "melting point": "272 to 273.5 °C"},
      {"molecule": "COc1cc(N2CCN([C@H]3CC[C@@H](c4c[nH]c5ccc(C(F)(F)F)cc54)CC3)CC2)c2ncccc2c1", "note": "[Example 82, 6-Methoxy-8-(4-{(cis)-4-[5-(trifluoromethyl)-1H-indol-3-yl]cyclohexyl}-1-piperazinyl)quinoline]", "melting point": "143 to 147 °C"},
      {"molecule": "COc1cc2cccnc2c(N2CCN([C@H]3CC[C@@H](c4cn(C)c5ccc(C#N)cc54)CC3)CC2)n1", "note": "(as salt: salt) [Example 66b, (cis)-3-{4-[4-(6-Methoxy[1,7]naphthyridin-8-yl)piperazin-1-yl]cyclohexyl}-1-methyl-1H-indole-5-carbonitrile]", "melting point": "230 to 233 °C"},
      {"molecule": "COc1cc2cccnc2c(N2CCN([C@H]3CC[C@@H](c4cn(C)c5ccc(C#N)cc54)CC3)CC2)n1", "note": "(as salt: salt) [Example 66a, (cis)-3-{4-[4-(6-Methoxy[1,7]naphthyridin-8-yl)piperazin-1-yl]cyclohexyl}-1-methyl-1H-indole-5-carbonitrile]", "melting point": "235 to 238 °C"},
      {"molecule": "CN(C)C(=O)c1cc(N2CCN([C@H]3CC[C@@H](c4cn(C)c5ccc(C#N)cc54)CC3)CC2)c2ncccc2c1", "note": "(as salt: oxalate) [Example 77a, 8-[4-[(cis)-4-(5-Cyano-1-methyl-1H-indol-3-yl)cyclohexyl]-1-piperazinyl]-N,N-dimethyl-6-quinolincarboxamide]", "melting point": "163 to 165 °C"}
    ]}
  ]
}
